What all share (format): biochemical
One experiment has as its target T1, caspase 7 (Homo sapiens, UniProt P55210).
T1 construct: purchased Biomol International, UK
T1 sequence (P55210 24-198 limits assumed): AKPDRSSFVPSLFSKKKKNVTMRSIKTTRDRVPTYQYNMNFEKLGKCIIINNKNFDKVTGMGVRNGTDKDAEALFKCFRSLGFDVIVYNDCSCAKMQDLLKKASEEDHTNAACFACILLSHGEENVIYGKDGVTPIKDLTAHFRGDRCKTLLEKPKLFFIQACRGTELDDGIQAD
T1 sequence (P55210 207-303 limits assumed): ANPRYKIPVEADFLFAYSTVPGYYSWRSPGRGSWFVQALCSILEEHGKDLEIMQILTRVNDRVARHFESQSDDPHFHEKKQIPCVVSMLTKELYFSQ
Briefly: Fluorimetric in vitro caspase inhibition assay (7-AMC), caspase 7. Conditions: recombinant human caspase 7, 10 μM Ac-DEVD-AMC. On the procedure:
(§1) Recombinant human caspases-1, -3, -6, -7, and -8 and their peptide-specific substrates were purchased from Biomol International, UK Inhibition of the recombinant caspases by non-radioactive isatins was assessed using a fluorometric assay that measures the accumulation of a fluorogenic product, 7-amino-4-methylcoumarin (7-AMC). All assays were performed in 96-well plates at a volume of 200 μl per well. The assays were performed at 37° C. in an appropriate reaction buffer as described below for each caspase. For caspase 1, the buffer comprised of 0.1% CHAPS, 100 mM NaCl, 5 mM 2-mercaptoethanol, 100 mM HEPES (pH 7.4), 2 mM EDTA, 10% sucrose, and 10 μM of the peptide substrate Ac-YVAD-AMC. For caspase 3: 20 mM HEPES (pH 7.4), 10% sucrose, 100 mM NaCl, 0.1% CHAPS, 2 m, mM EDTA, and 10 μM Ac-DEVD-AMC. For caspase 6: 20 mM HEPES (pH 7.4), 10% sucrose, 100 mM NaCl, 0.1% CHAPS, 2 mM EDTA, and 10 μM Ac-VEID-AMC. For caspase 7: 20 mM HEPES (pH 7.4), 10% sucrose, 5 mM 2-mercaptoethanol, 100 mM NaCl, 0.1% CHAPS, 2 mM EDTA, 10 μM Ac-DEVD-AMC. For caspase 8: 20 mM HEPES (pH 7.4), 10% sucrose, 100 mM NaCl, 0.1% CHAPS, 2 mM EDTA, and 10 μM Ac-IETD-AMC. The Buffers contained non-radioactive isatins in DMSO at a final concentration of 500, 50, 5 μM; 500, 50, 5 nM; 500, 50, 5 pM; the final concentration of DMSO in all wells was 5% of the total volume. Recombinant caspases were used at 0.5 units per assay (˜500 pmol substrate converted per h). All reagents except the peptide substrate were pre-incubated for 10 min. The peptide substrate (final concentration 10 μM) was then added and the plate was incubated for a further 30 min; 30 min was selected after initial linearity study where reaction was assessed after 10, 30, 60 or 90 min. The 30 min time point was selected. Respective control wells contained all reaction components without enzyme. The amount of 7-AMC produced was measured on a fluorescence microplate reader (Victor2; Perkin-Elmer Life sciences) at excitation and emission wavelengths of 355 nm and 460 nm, respectively. The concentration of isatin that inhibits the caspase activity by 50% (EC50) was estimated by non-linear regression analysis using GraphPad Prism (Version 4.0 for Windows, GraphPad Software, San Diego Calif. USA). All the isatins were analyzed in duplicate; the assays were repeated once. Known compounds 13-16 were included as reference compounds.
(§2) The data are the average for two runs, each of which was duplicated, at nine concentrations ranging from 5 pM to 500 μM; the drug concentration required to inhibit each enzyme by 50% (EC50) was obtained from nonlinear regression analysis of the inhibition profiles.

The target of a further experiment is T2, caspase 8 (Homo sapiens, UniProt Q14790).
T2 construct: purchased Biomol International, UK
Briefly: Fluorimetric in vitro caspase inhibition assay (7-AMC), caspase 8. Conditions: recombinant human caspase 8, 10 μM Ac-IETD-AMC; read-out: Caspase EC50 (nM), 1/6/8: caspase 8. On the procedure:
as §1, §2

For the next experiment, the target named is T3, caspase 6 (Homo sapiens, UniProt P55212).
T3 construct: purchased Biomol International, UK
T3 sequence (P55212 24-179 limits assumed): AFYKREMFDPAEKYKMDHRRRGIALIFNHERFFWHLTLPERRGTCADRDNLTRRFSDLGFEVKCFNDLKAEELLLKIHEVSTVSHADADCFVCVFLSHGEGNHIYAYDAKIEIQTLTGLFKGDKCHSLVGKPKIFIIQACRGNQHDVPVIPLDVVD
T3 sequence (P55212 194-293 limits assumed): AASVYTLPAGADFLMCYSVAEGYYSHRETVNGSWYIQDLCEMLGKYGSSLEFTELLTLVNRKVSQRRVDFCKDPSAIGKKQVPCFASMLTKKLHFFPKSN
Briefly: Fluorimetric in vitro caspase inhibition assay (7-AMC), caspase 6. Conditions: recombinant human caspase 6, 10 μM Ac-VEID-AMC; read-out: Caspase EC50 (nM), 1/6/8: caspase 6. On the procedure:
as §1, §2

For the next experiment, the target named is T4, caspase 1 (Homo sapiens, UniProt P29466).
T4 construct: purchased Biomol International, UK
T4 sequence (P29466 120-297 limits assumed): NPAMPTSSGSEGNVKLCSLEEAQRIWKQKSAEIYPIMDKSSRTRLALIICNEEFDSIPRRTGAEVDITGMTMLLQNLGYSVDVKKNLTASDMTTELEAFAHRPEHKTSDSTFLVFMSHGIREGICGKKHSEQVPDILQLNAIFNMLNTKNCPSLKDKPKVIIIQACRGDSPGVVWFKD
T4 sequence (P29466 317-404 limits assumed): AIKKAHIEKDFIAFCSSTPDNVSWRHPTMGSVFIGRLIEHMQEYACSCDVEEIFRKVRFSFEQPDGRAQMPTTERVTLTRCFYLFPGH
Briefly: Fluorimetric in vitro caspase inhibition assay (7-AMC), caspase 1. The note with it: recombinant human caspase 1, 10 μM Ac-YVAD-AMC; read-out: Caspase EC50 (nM), 1/6/8: caspase 1. On the procedure:
as §1, §2

Some results are limits rather than exact numbers.

T2 sequence (Q14790 217-374 limits assumed): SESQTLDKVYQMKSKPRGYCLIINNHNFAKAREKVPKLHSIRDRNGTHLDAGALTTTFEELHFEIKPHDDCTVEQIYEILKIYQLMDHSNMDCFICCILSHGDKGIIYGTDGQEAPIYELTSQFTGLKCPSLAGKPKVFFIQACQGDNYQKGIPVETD
T2 sequence (Q14790 385-479 limits assumed): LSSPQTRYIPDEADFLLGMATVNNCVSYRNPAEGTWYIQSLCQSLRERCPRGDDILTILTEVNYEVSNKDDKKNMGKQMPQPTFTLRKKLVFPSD

As to `O=C1C(=O)N(Cc2ccc(F)cc2)c2ccc(S(=O)(=O)N3CCC[C@H]3COc3cccc(F)c3)cc21` [Compound 1, (S)-1-(4-Fluorobenzyl)-5-(2-(3-fluorophenoxymethyl)-pyrrolidine-1-sulfonyl)isatin], the EC50 on caspase 7 is 13.5 nM; on caspase 8 it was greater than 5000 nM; on caspase 6, greater than 5000 nM; at caspase 1, greater than 5000 nM.
Regarding `O=C1C(=O)N(Cc2ccc(F)cc2)c2ccc(S(=O)(=O)N3CCC[C@H]3COc3ccc(F)cc3F)cc21` [Compound 2, (S)-1-(4-Fluorobenzyl)-5-(2-(2,4-difluorophenoxymethyl)-pyrrolidine-1-sulfonyl)isatin], the EC50 at caspase 7 was 13 nM; at caspase 8, greater than 5000 nM; on caspase 6, greater than 5000 nM; at caspase 1, greater than 5000 nM.
On to `O=C1C(=O)N(Cc2ccc(F)cc2)c2ccc(S(=O)(=O)N3CCC[C@H]3COC3CCOCC3)cc21` [Compound 4, (S)-1-(4-Fluorobenzyl)-5-(2-(tetrahydro-2H-pyran-4-yloxymethyl)-pyrrolidine-1-sulfonyl)isatin], for which the EC50 at caspase 7 was 14.4 nM; on caspase 8, greater than 5000 nM; on caspase 6, greater than 5000 nM; on caspase 1, greater than 5000 nM.
Take `O=C1C(=O)N(Cc2ccc(F)cc2)c2ccc(S(=O)(=O)N3CCC[C@H]3COc3ccncn3)cc21` [Compound 5, (S)-1-(4-Fluorobenzyl)-5-(2-(pyrimidin-4-yloxymethyl)-pyrrolidine-1-sulfonyl)isatin]: the EC50 is 2.3 nM at caspase 7, greater than 5000 nM on caspase 8, greater than 5000 nM on caspase 6 and greater than 5000 nM on caspase 1.
In the case of `O=C1C(=O)N(Cc2cn(CCF)nn2)c2ccc(S(=O)(=O)N3CCC[C@H]3COc3ccccc3)cc21` [Compound 10, (S)-1-((1-(2-Fluoroethyl)-1H-[1,2,3]-triazol-4-yl)methyl)-5-(2-phenoxymethyl-pyrrolidine-1-sulfonyl)isatin], the EC50 was 28.2 nM at caspase 7, greater than 5000 nM on caspase 8, greater than 5000 nM on caspase 6 and greater than 5000 nM at caspase 1.
Take `O=C1C(=O)N(Cc2cn(CCF)nn2)c2ccc(S(=O)(=O)N3CCC[C@H]3COc3ccc(F)cc3F)cc21` [Compound 11, (S)-1-((1-(2-Fluoroethyl)-1H-[1,2,3]-triazol-4-yl)methyl)-5-(2(2,4-difluorophenoxymethyl)-pyrrolidine-1-sulfonyl)isatin]: the EC50 at caspase 7 was 2.2 nM; on caspase 8 it was greater than 5000 nM; at caspase 6, greater than 5000 nM; on caspase 1, greater than 5000 nM.
With `O=C1C(=O)N(Cc2ccccc2)c2ccc(S(=O)(=O)N3CCC[C@H]3COc3ccccc3)cc21` [Compound 13, (S)-1-benzyl-5-(2-phenoxymethyl-pyrrolidine-1-sulfonyl)isatin, reference compound], the EC50 was 29.4 nM on caspase 7, greater than 5000 nM at caspase 8, greater than 5000 nM on caspase 6 and greater than 5000 nM on caspase 1.
Turning to `O=C1C(=O)N(Cc2ccc(I)cc2)c2ccc(S(=O)(=O)N3CCC[C@H]3COc3ccccc3)cc21` [Compound 14, (S)-1-(4-iodobenzyl)-5-(2-phenoxymethyl-pyrrolidine-1-sulfonyl)isatin, reference compound], the EC50 is 25.3 nM on caspase 7, greater than 5000 nM at caspase 8, greater than 5000 nM on caspase 6 and greater than 5000 nM on caspase 1.
For the compound `O=C1C(=O)N(Cc2ccc(F)cc2)c2ccc(S(=O)(=O)N3CCC[C@H]3COc3ccccc3)cc21` [Compound 15, (S)-1-(4-fluorobenzyl)-5-(2-phenoxymethyl-pyrrolidine-1-sulfonyl)isatin, reference compound], the EC50 is 19.8 nM on caspase 7, greater than 5000 nM at caspase 8, greater than 5000 nM on caspase 6 and greater than 5000 nM at caspase 1.
With `O=C1C(=O)N(Cc2ccc(F)cc2)c2ccc(S(=O)(=O)N3CCCC3)cc21` [Compound 16, 1-(4-Fluorobenzyl)-5-(pyrrolidine-1-sulfonyl)isatin, reference compound], the EC50 on caspase 7 is 78.6 nM; on caspase 8, greater than 5000 nM; at caspase 6 it was greater than 5000 nM; on caspase 1, greater than 5000 nM.
As for `O=C1C(=O)N(Cc2ccc(F)cc2)c2ccc(S(=O)(=O)N3CCC[C@H]3COc3ccc(F)cc3)cc21` [Compound 22, (S)-1-(4-Fluorobenzyl)-5-(2-(4-fluorophenoxymethyl)-pyrrolidine-1-sulfonyl)isatin], the EC50 at caspase 7 is 8 nM; on caspase 8, greater than 5000 nM; on caspase 6 it was greater than 5000 nM; on caspase 1, greater than 5000 nM.
In the case of `C#CCN1C(=O)C(=O)c2cc(S(=O)(=O)N3CCC[C@H]3COc3ccc(F)cc3F)ccc21` [Compound 25, (S)-1-(2-Propynyl)-5-(2-(2,4-difluorophenoxymethyl)-pyrrolidine-1-sulfonyl)isatin], the EC50 at caspase 7 was 60.4 nM; at caspase 8, greater than 5000 nM; at caspase 6, greater than 5000 nM; at caspase 1, greater than 5000 nM.

(Values after patent US8961930B2, “Isatin derivatives for use as in vivo imaging agents” (Imperial Innovations Limited, priority 2008, dated 2015).)
